This passage reports Ki results from US9067963B2, “N-alkyl 2-(disubstituted)alkynyladenosine-5-uronamides as A2A agonists” (Lewis and Clark Pharmaceuticals, Inc., priority 2012, dated 2015).

Structures are written as SMILES.

What is called Ki is the equilibrium dissociation constant of an inhibitor or competing ligand from its target. Low readings indicate a stronger hold on the target, high ones a looser hold on the target.

The target in this experiment is A2A adenosine receptors (Homo sapiens, UniProt P29274). The experiment in a line: A2A Ki binding (methodology of Murphree et al., Mol Pharmacol 2002, 61, 455-62). From the text: The Ki values were obtained using the methodology described by Murphree et al. in Mol Pharmacol 2002, 61, 455-62.
Chain of A2A adenosine receptors (P29274 whole entry): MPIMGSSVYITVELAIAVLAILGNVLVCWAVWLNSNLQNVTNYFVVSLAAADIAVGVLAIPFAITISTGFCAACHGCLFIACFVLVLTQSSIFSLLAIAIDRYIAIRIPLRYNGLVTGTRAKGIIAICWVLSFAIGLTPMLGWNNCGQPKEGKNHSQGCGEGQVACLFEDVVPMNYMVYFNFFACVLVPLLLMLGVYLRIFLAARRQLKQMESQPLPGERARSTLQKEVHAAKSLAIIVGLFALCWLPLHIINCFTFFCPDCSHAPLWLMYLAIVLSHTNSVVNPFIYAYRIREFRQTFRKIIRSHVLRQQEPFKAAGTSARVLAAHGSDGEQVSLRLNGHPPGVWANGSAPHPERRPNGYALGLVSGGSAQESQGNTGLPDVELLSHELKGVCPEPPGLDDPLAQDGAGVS
On to `CNC(=O)[C@H]1O[C@@H](n2cnc3c(N)nc(C#CCN(C)C(=O)c4ccc(C(F)(F)F)nc4)nc32)C(O)[C@@H]1O` (stereo partly drawn) [Example 1, N-Methyl 2-(3-{N-methyl-1-[6-(trifluoromethyl)pyridin-3-yl]formamido}prop-1-yn-1-yl)adenosine-5′-uronamide], for which the Ki is under 1 nM.

On to `CN(CC#Cc1nc(N)c2ncn([C@@H]3O[C@H](C(=O)NC4CC4)[C@@H](O)C3O)c2n1)C(=O)c1ccc(C(F)(F)F)nc1` (stereo partly drawn) [Example 2, N-Cyclopropyl 2-(3-{N-methyl-1-[6-(trifluoromethyl)pyridin-3-yl]formamido}prop-1-yn-1-yl)adenosine-5′-uronamide], for which the Ki is under 1 nM.

Regarding `Nc1nc(C#CCN(CC2CC2)C(=O)c2ccccc2)nc2c1ncn2[C@@H]1O[C@H](C(=O)NC2CC2)[C@@H](O)C1O` (stereo partly drawn) [Example 3, N-Cyclopropyl 2-{3-[N-(cyclopropylmethyl)benzamido]propyn-1-yl}adenosine-5′-uronamide], the Ki was under 1 nM.

On to `Nc1nc(C#CCN(C(=O)c2ccccc2)C2CCC2)nc2c1ncn2[C@@H]1O[C@H](C(=O)NC2CC2)[C@@H](O)C1O` (stereo partly drawn) [Example 4, N-Cyclopropyl 2-{3-[N-(cyclobutyl)benzamido]propyn-1-yl}adenosine-5′-uronamide], for which the Ki is under 1 nM.

The compound `Nc1nc(C#CCNC(=O)c2ccccc2)nc2c1ncn2[C@@H]1O[C@H](C(=O)NC2CC2)[C@@H](O)C1O` (stereo partly drawn) [Example 5, N-Cyclopropyl 2-{3-[benzamido]propyn-1-yl}adenosine-5′-uronamide] registered a Ki of 1 to 50 nM.

Turning to `CNC(=O)[C@H]1O[C@@H](n2cnc3c(N)nc(C#CCN(C)C(=O)c4ccc(F)nc4)nc32)C(O)[C@@H]1O` (stereo partly drawn) [Example 6, N-Methyl 2-{3-[N-methyl-1-(6-fluoropyridin-3-yl)formamido]prop-1-yn-1-yl}adenosine-5′-uronamide], the Ki is under 1 nM.

As to `CN(CC#Cc1nc(N)c2ncn([C@@H]3O[C@H](C(=O)NC4CC4)[C@@H](O)C3O)c2n1)C(=O)c1ccc(F)nc1` (stereo partly drawn) [Example 7, N-Cyclopropyl 2-{3-[N-methyl-1-(6-fluoropyridin-3-yl)formamido]prop-1-yn-1-yl}adenosine-5′-uronamide], the Ki was 1 to 50 nM.

Compound `CNC(=O)[C@H]1O[C@@H](n2cnc3c(N)nc(C#CCN(C(=O)c4ccccc4)C4CCC4)nc32)C(O)[C@@H]1O` (stereo partly drawn) [Example 8, N-Methyl 2-{3-[N-(cyclobutyl)benzamido]propyn-1-yl}adenosine-5′-uronamide] gave a Ki of under 1 nM.

In turn, `CNC(=O)[C@H]1O[C@@H](n2cnc3c(N)nc(C#CCN(C)C(=O)c4cccnc4)nc32)C(O)[C@@H]1O` (stereo partly drawn) [Example 9, N-Methyl 2-{3-[N-methylnicotinamido]propyn-1-yl}adenosine-5′-uronamide] showed a Ki of 1 to 50 nM.

Take `CNC(=O)[C@H]1O[C@@H](n2cnc3c(N)nc(C#CCN(C)C(=O)c4ccncc4)nc32)C(O)[C@@H]1O` (stereo partly drawn) [Example 10, N-Methyl 2-{3-[N-methylisonicotinamido]propyn-1-yl}adenosine-5′-uronamide]: the Ki was 1 to 50 nM.

Compound `CNC(=O)[C@H]1O[C@@H](n2cnc3c(N)nc(C#CCN(CCOC)C(=O)c4ccc(F)nc4)nc32)C(O)[C@@H]1O` (stereo partly drawn) [Example 11, N-Methyl 2-{3-[6-fluoro-N-(2-methoxyethyl)nicotinamido]propyn-1-yl}adenosine-5′-uronamide] came in with a Ki of under 1 nM.

`CNC(=O)[C@H]1O[C@@H](n2cnc3c(N)nc(C#CCN(CCOC)C(=O)c4cccs4)nc32)C(O)[C@@H]1O` (stereo partly drawn) [Example 12, N-Methyl 2-{3-[N-(2-methoxyethyl)thiophene-2-carboxamido]propyn-1-yl}adenosine-5′-uronamide]: the Ki was under 1 nM.

`CNC(=O)[C@H]1O[C@@H](n2cnc3c(N)nc(C#CCN(C)C(=O)c4ccccc4)nc32)C(O)[C@@H]1O` (stereo partly drawn) [Example 13, N-Methyl 2-{3-[N-methylbenzamido]propyn-1-yl}adenosine-5′-uronamide] came in with a Ki of under 1 nM.

Compound `CNC(=O)[C@H]1O[C@@H](n2cnc3c(N)nc(C#CCN(CCOC)C(=O)c4ccccc4)nc32)C(O)[C@@H]1O` (stereo partly drawn) [Example 14, N-Methyl 2-{3-[N-(2-methoxyethyl)benzamido]propyn-1-yl}adenosine-5′-uronamide] gave a Ki of under 1 nM.

On to `CNC(=O)[C@H]1O[C@@H](n2cnc3c(N)nc(C#CCN(C)C(=O)c4ccc(F)cc4)nc32)C(O)[C@@H]1O` (stereo partly drawn) [Example 15, N-Methyl 2-{3-[4-fluoro-N-methylbenzamido]propyn-1-yl}adenosine-5′-uronamide], for which the Ki was under 1 nM.

Consider `Nc1nc(C#CCN(C(=O)Cc2ccccc2)C2CC2)nc2c1ncn2[C@@H]1O[C@H](C(=O)NC2CC2)[C@@H](O)C1O` (stereo partly drawn) [Example 16], for which the Ki is 1 to 50 nM.

On to `CNC(=O)[C@H]1O[C@@H](n2cnc3c(N)nc(C#CCN(Cc4ccc(OC)cc4)C(=O)C4CC4)nc32)C(O)[C@@H]1O` (stereo partly drawn) [Example 17], for which the Ki was in the range of 1 to 50 nM.

`COc1ccc(CN(CC#Cc2nc(N)c3ncn([C@@H]4O[C@H](C(=O)NC5CC5)[C@@H](O)C4O)c3n2)C(=O)C2CC2)cc1` (stereo partly drawn) [Example 18] gave a Ki of under 1 nM.

Compound `CNC(=O)[C@H]1O[C@@H](n2cnc3c(N)nc(C#CCN(C(=O)c4ccc(F)cc4)C4CCC4)nc32)C(O)[C@@H]1O` (stereo partly drawn) [Example 19] registered a Ki of under 1 nM.

As for `CNC(=O)[C@H]1O[C@@H](n2cnc3c(N)nc(C#CCN(C(=O)c4cccc(F)c4)C4CCC4)nc32)C(O)[C@@H]1O` (stereo partly drawn) [Example 20], the Ki is under 1 nM.

As to `CNC(=O)[C@H]1O[C@@H](n2cnc3c(N)nc(C#CCN(C(=O)c4ccc(OC)c(F)c4)C4CCC4)nc32)C(O)[C@@H]1O` (stereo partly drawn) [Example 21], the Ki was under 1 nM.

Regarding `CNC(=O)[C@H]1O[C@@H](n2cnc3c(N)nc(C#CCN(C(=O)c4ccc(Cl)nc4)C4CC4)nc32)C(O)[C@@H]1O` (stereo partly drawn) [Example 22], the inhibitory constant (Ki) is under 1 nM.

For the compound `CNC(=O)[C@H]1O[C@@H](n2cnc3c(N)nc(C#CCN(C(=O)c4ccccc4)C4CC4)nc32)C(O)[C@@H]1O` (stereo partly drawn) [Example 23], the Ki was over 50 nM.

For the compound `Nc1nc(C#CCN(C(=O)c2ccc(Cl)nc2)C2CC2)nc2c1ncn2[C@@H]1O[C@H](C(=O)NC2CC2)[C@@H](O)C1O` (stereo partly drawn) [Example 24], the Ki is under 1 nM.

In the case of `Nc1nc(C#CCN(C(=O)c2ccccc2)C2CC2)nc2c1ncn2[C@@H]1O[C@H](C(=O)NC2CC2)[C@@H](O)C1O` (stereo partly drawn) [Example 25], the inhibition constant (Ki) is under 1 nM.

With `CCNC(=O)[C@H]1O[C@@H](n2cnc3c(N)nc(C#CCN(C(=O)c4ccc(Cl)nc4)C4CC4)nc32)C(O)[C@@H]1O` (stereo partly drawn) [Example 26], the Ki was under 1 nM.

In turn, `CCNC(=O)[C@H]1O[C@@H](n2cnc3c(N)nc(C#CCN(C(=O)Cc4ccccc4)C4CC4)nc32)C(O)[C@@H]1O` (stereo partly drawn) [Example 27] showed a Ki of 1 to 50 nM.

`CCNC(=O)[C@H]1O[C@@H](n2cnc3c(N)nc(C#CCN(C)C(=O)c4ccc(C(F)(F)F)nc4)nc32)C(O)[C@@H]1O` (stereo partly drawn) [Example 28] showed a Ki of under 1 nM.

As to `CNC(=O)[C@H]1O[C@@H](n2cnc3c(N)nc(C#CCN(C)C(=O)c4ccc(OC)c(F)c4)nc32)C(O)[C@@H]1O` (stereo partly drawn) [Example 29], the Ki was under 1 nM.

`CNC(=O)[C@H]1O[C@@H](n2cnc3c(N)nc(C#CCN(C(=O)c4ccc(Cl)cc4)C4CCC4)nc32)C(O)[C@@H]1O` (stereo partly drawn) [Example 30]: the Ki was under 1 nM.

As for `CNC(=O)[C@H]1O[C@@H](n2cnc3c(N)nc(C#CCN(C(=O)c4ccccc4)C4CCCC4)nc32)C(O)[C@@H]1O` (stereo partly drawn) [Example 31], the Ki was under 1 nM.

`CNC(=O)[C@H]1O[C@@H](n2cnc3c(N)nc(C#CCN(CC(C)C)C(=O)c4ccccc4)nc32)C(O)[C@@H]1O` (stereo partly drawn) [Example 32] came in with a Ki of under 1 nM.

In turn, `CNC(=O)[C@H]1O[C@@H](n2cnc3c(N)nc(C#CCN(C)C(=O)c4ccc(C#N)cc4)nc32)C(O)[C@@H]1O` (stereo partly drawn) [Example 33] displayed a Ki of under 1 nM.

With `CNC(=O)[C@H]1O[C@@H](n2cnc3c(N)nc(C#CCN(Cc4cccs4)C(=O)c4ccccc4)nc32)C(O)[C@@H]1O` (stereo partly drawn) [Example 34], the Ki fell in the range of 1 to 50 nM.

Consider `CCNC(=O)[C@H]1O[C@@H](n2cnc3c(N)nc(C#CCN(C)C(=O)c4ccc(F)nc4)nc32)C(O)[C@@H]1O` (stereo partly drawn) [Example 35], for which the Ki is under 1 nM.

On to `CCNC(=O)[C@H]1O[C@@H](n2cnc3c(N)nc(C#CCN(Cc4ccc(OC)cc4)C(=O)C4CC4)nc32)C(O)[C@@H]1O` (stereo partly drawn) [Example 36], for which the Ki fell in the range of 1 to 50 nM.
